Measurements published in US20240252668A1, “ANTIBODY DRUG CONJUGATES AND METHODS FOR MAKING THEREOF” (Novartis AG, priority 2021, published 2024).
Where two headings read alike, the source gives them in different places. Starred links: 1 amine or outer side, 2 acyl side, 3 side chain; linkers in the order of their positions; H or OH if unused. Positions of bridges follow the written chain, without caps; N, C: chain ends. Non-standard residues stand in square brackets, D forms with d. Residues, ends and D or L forms follow the SMILES beside them. *: point of attachment. Leu(3R-O(AcLeu(3R-OH))) = CC(=O)N[C@H](C(=O)O[C@H](C(C)C)[C@H](N)C(=O)O)[C@H](O)C(C)C; Leu(3R-OH,Nα-propionyl) = CCC(=O)N[C@H](C(=O)*)[C@H](O)C(C)C; X1 = CC(C)[C@@H](O[*:3])[C@H](N[*:1])C(=O)[*:2]; NMeT = CN[C@H](C(=O)O)[C@@H](C)O; dPhLac = O=C(O)[C@H](O)Cc1ccccc1; NMeA = CN[C@@H](C)C(=O)O; NMeDha = C=C(NC)C(=O)O; Propionyl = CCC(=O)*

Tests used:
[1] = tested on: 92.1 uveal melanoma cell line (heterozygous GNAQ Q209L); assay: Cell proliferation assay (resazurin cell viability), 92.1 cell line; assay type: cell-based
Description: (§1) Cell Proliferation Assays with Chromodepsins (compounds (A1) and 2-15): Cell line descriptions: 92.1—uveal melanoma cell line, derived from primary tumor, harboring heterozygous GNAQ Q209L mutation. Purchased from Sigma Aldrich. MP41 (CRL-3297) -uveal melanoma cell line, derived from primary tumor, harboring heterozygous GNA11 Q209L mutation. Purchased from ATCC. A375—skin melanoma cell line, harboring homozygous BRAF V600E mutation. Origin: Cancer Cell Line Encyclopedia (CCLE). SK-MEL-30—skin melanoma cell line, harboring heterozygous NRAS Q61K mutation. Origin: CCLE.
(§2) Cells were cultured in 96-well plates in a total volume of 100 μL at 37° C., 5% CO2 and 95% relative humidity. All cell lines were cultured in RPMI Medium (RPMI 1640 w/o L-glutamine, Bioconcept ref. 1-41F01-I) except A375, DMEM medium (DMEM high glucose (4.5 g/L), Bioconcept, ref. 1-26F01-I), and supplemented with 10% FCS (Bioconcept, ref. 2-01F30-I). Two to three thousand cells were seeded in 96-well plates per well the night before they were treated with compounds (concentration range: from 260 nM to 0.036 nM with ⅓ dilution steps; for 7 the concentration range was increased from 10000 nM to 1.52 nM with ⅓ dilution steps). Cell viability was measured by addition of 10 ul of resazurin per well after 96 hours of treatment. Results were analyzed and plotted using GraphPad Prism 9.0.1.

[2] = tested on: MP41 uveal melanoma cell line (heterozygous GNA11 Q209L); assay: Cell proliferation assay (resazurin cell viability), MP41 cell line; assay type: cell-based
Description: as §1, §2

[3] = tested on: A375 skin melanoma cell line (homozygous BRAF V600E); assay: Cell proliferation assay (resazurin cell viability), A375 cell line; assay type: cell-based
Description: as §1, §2

[4] = tested on: SK-MEL-30 skin melanoma cell line (heterozygous NRAS Q61K); assay: Cell proliferation assay (resazurin cell viability), SK-MEL-30 cell line; assay type: cell-based
Description: as §1, §2

[5] = tested on: 92.1 and MP41 cell lines (GNAQ/GNA11 mutant uveal melanoma); assay: Cell proliferation assays, potency ranking over both uveal melanoma lines; assay type: cell-based; conditions: 92.1 and MP41 cell lines
Description: The selective antiproliferative profile of the chromodepsins against GNAQ/GNA11 mutant cell lines is confirmed by the lack of activity against the A375 and SK MEL 30 cell lines that are independent from GNAQ/GNA11 signaling. The potency ranking using the 92.1 and MP41 cell lines is in good agreement with the previously SAR studies. […] These findings are in line with a recent report from Voss et al., highlighting the importance of the “lipophilic anchors” of compound (A1) at the residues varied in compounds 2 and 3, in context of binding kinetics and prolonged residence time on the target proteins. The retained potency of compound 4 indicates a promising exit vector for potential synthetic or biosynthetic modifications of the scaffold. […] The linearized depsipeptides compounds 5-7 lack any antiproliferative activity. In this experimental setup, the cellular permeability of the compounds was a crucial factor contributing to the observed antiproliferative potency. Therefore, all compounds were characterized in a low efflux MCDK assay and determined their exposed polar surface areas (EPSA) in order to assess their passive cellular permeabilities. All macrocyclic chromodepsins that feature the N acyl Hle side chain show similar results concerning their % fraction absorbed (% FA; average ˜60% FA+20%) and EPSA values.
as §1, §2

[6] = tested on: MDCK-LE monolayers; assay: Cell-based transwell assay with MDCK-low efflux monolayers (passive permeability); assay type: in vitro ADME; conditions: MDCK-LE monolayers
Description: Cell-based transwell assays with MDCK-low efflux monolayers: Compounds (A1) and 2-15 were tested in MDCK cell sub-clones with low effluxt ransporter activity (MDCK-LE) in order to determine their passive permeability. The incubations were performed at a contract research organization as described previously.

[7] = EPSA determination by supercritical fluid chromatography; assay type: physicochemical; conditions: modified EPSA method, SFC
Description: […] by supercritical fluid chromatography: Compounds (A1) and 2-15 were tested by supercritical fluid chromatography (SFC) to determine their ESAPSA values. Samples were analyzed using a Chirex 3014 column ([…], 3×100 mm column, 100 Å pore size; Phenomenex. The starting conditions were 5% methanol containing 20 mM ammonium formate and 95% scCO2. The gradient was increased linearly to 60% methanol containing 20 mM ammonium formate in 4.5 min.

[8] = 92.1 (GNAQ Q209L), 96 hours of treatment, read-out: GI50 by cell line, 92.1
[9] = 92.1 cell line, average of Rep. 1 and 2, read-out: GI50 92.1 Average
[10] = 92.1 cell line, replicate 1, read-out: GI50 92.1 Rep. 1
[11] = 92.1 cell line, replicate 2, read-out: GI50 92.1 Rep. 2
[12] = MP41 (GNA11 Q209L), 96 hours of treatment, read-out: GI50 by cell line, MP41
[13] = MP41 cell line, average of Rep. 1 and 2, read-out: GI50 MP41 Average
[14] = MP41 cell line, replicate 1, read-out: GI50 MP41 Rep. 1
[15] = MP41 cell line, replicate 2, read-out: GI50 MP41 Rep. 2
[16] = A375 (GNAQ/11 wild type), 96 hours of treatment, read-out: GI50 by cell line, A375
[17] = A375 cell line, average of Rep. 1 and 2, read-out: GI50 A375 Average
[18] = A375 cell line, replicate 1, read-out: GI50 A375 Rep. 1
[19] = A375 cell line, replicate 2, read-out: GI50 A375 Rep. 2
[20] = SK-MEL-30 (GNAQ/11 wild type), 96 hours of treatment, read-out: GI50 by cell line, SK-MEL-30
[21] = SK-MEL-30 cell line, average of Rep. 1 and 2, read-out: GI50 SK-MEL-30 Average
[22] = SK-MEL-30 cell line, replicate 1, read-out: GI50 SK-MEL-30 Rep. 1
[23] = SK-MEL-30 cell line, replicate 2, read-out: GI50 SK-MEL-30 Rep. 2

Compound | GI50 [1, 8] | GI50 [1, 9] | GI50 [1, 10] | GI50 [1, 11] | GI50 [2, 12] | GI50 [2, 13] | GI50 [2, 14] | GI50 [2, 15] | GI50 [3, 16] | GI50 [3, 17] | GI50 [3, 18] | GI50 [3, 19] | GI50 [4, 20] | GI50 [4, 21] | GI50 [4, 22] | GI50 [4, 23] | also measured
C=C1C(=O)N[C@@H](C)C(=O)N(C)[C@@H](C)C(=O)N[C@@H]([C@H](OC(=O)[C@@H](NC(=O)CC)[C@H](O)C(C)C)C(C)C)C(=O)N(C)[C@@H]([C@@H](C)OC)C(=O)O[C@H](C(C)C)[C@H](NC(=O)CC)C(=O)O[C@H](Cc2ccccc2)C(=O)N1C [Compound 9] (Propionyl-[X1][dPhLac][NMeDha]A[NMeA][X1](Leu(3R-OH,Nα-propionyl))[NMeT](Me); ester 1-C) | 1.4 nM | 1.4 nM | 1.2 nM | 1.69 nM | 0.7 nM | 0.7 nM | 0.6 nM | 0.78 nM | > 260 nM | > 260 nM | > 260 nM | > 260 nM | > 260 nM | > 260 nM | > 260 nM | > 260 nM | loss of potency compared to compound (A1) (growth inhibition) [5]: two to three
C=C1C(=O)N[C@@H](C)C(=O)N(C)[C@@H](C)C(=O)N[C@@H]([C@H](OC(=O)[C@@H](NC(C)=O)[C@H](O)C(C)C)C(C)C)C(=O)N(C)[C@@H]([C@@H](C)OC)C(=O)O[C@H](C)[C@H](NC(C)=O)C(=O)O[C@H](Cc2ccccc2)C(=O)N1C [Compound 13] (Ac-T[dPhLac][NMeDha]A[NMeA][Leu(3R-O(AcLeu(3R-OH)))][NMeT](Me); ester 1-C) | 15.7 nM | 15.7 nM | 10.1 nM | 21.4 nM | 6 nM | 6 nM | 3.6 nM | 8.31 nM | > 260 nM | > 260 nM | > 260 nM | > 260 nM | > 260 nM | > 260 nM | > 260 nM | > 260 nM | % Fraction absorbed [6]: 46.5%; % Recovery [6]: 85%; Papp A − B [6]: 2.69 ×10⁻⁶ cm/s; EPSA [7]: 95 A^2
